In patent US8658640B2, “JNK inhibitors for the treatment of endometriosis” (Merck Serono SA, priority 2005, dated 2014):

Key:
[1] = cited from earlier work
[2] = system: endometriotic lesions from human endometrial tissue; details: earlier work using this model; positive control; cited from earlier work
endometriotic-like foci = experiment: Rat model of experimentally induced endometriosis; assay type: in vivo; details: for comparison; data not shown
Description: The control group received the vehicle only.

[3] = system: human endometrial tissue organ cultures; experiment: Proliferative organ culture model (MMP-3 Western blot); assay type: cell-based
Description: Normal endometrial tissues were acquired just prior to ovulation by biopsy from a donor population (no history of endometriosis) and from women with surgically confirmed endometriosis. Informed consent was obtained prior to biopsy and the use of human tissues was approved by Vanderbilt University's Institutional Review Board and Committee for the Protection of Human Subjects.
Endometrial biopsies were dissected into small cubes (˜1×1 mm^3) and 8-10 pieces of tissue per treatment group were suspended in tissue culture inserts. Organ cultures were maintained a total of 72 hrs at 37° C. in DME/F-12 media with serum supplements. Tissue treatments included 17β-estradiol (E), E plus progesterone (P), or E plus medroxy progesterone acetate (MPA) with and without the JNK inhibitor. Cultures were maintained for 24 hours in E only until the initiation of experimental conditions. JNK inhibitor was used at a concentration of 5 or 15 μM and MPA was used at a concentration of 50, 100 or 250 μM.
Media was collected from organ cultures and secreted proteins quantified using the Coomassie Plus Protein Assay (Pierce) and 20 μg total protein subjected to 10% SDS-PAGE. Proteins were transferred to PVDF membrane and blocked in PBS with 10% non-fat milk and 0.05% Tween-20. […]

**Q.** With `C#C[C@]1(O)CC[C@H]2[C@@H]3CCC4=Cc5oncc5C[C@]4(C)[C@H]3CC[C@@]21C` [Danazol] as the compound, how does the “patients suffering from pain with improved symptoms” value [1] read?
**A.** 66-100%

**Q.** Which disease progression [2] does the source give for `CC(=O)[C@H]1CC[C@H]2[C@@H]3CCC4=CC(=O)CC[C@]4(C)[C@H]3CC[C@]12C` [progesterone] here?
**A.** prevents disease progression

**Q.** Which “regression of established endometriotic lesions” value (endometriotic-like foci) does the source give for antide here?
**A.** about 85%

**Q.** With `CC(=O)O[C@]1(C(C)=O)CC[C@H]2[C@@H]3C[C@H](C)C4=CC(=O)CC[C@]4(C)[C@H]3CC[C@@]21C` [MPA, medroxy progesterone acetate] as the compound, how does the “sensitivity to MPA treatment” value ([3]; endometrial cultures from endometriosis patients) read?
**A.** failed to regress

**Q.** And the “sensitivity to MPA treatment” value ([3]; endometrial cultures from normal volunteers)?
**A.** sensitive
